# ChEMBL document CHEMBL4321794, “Discovery and Optimization of 2-Arylquinazolin-4-ones into a Potent and Selective Tankyrase Inhibitor Modulating Wnt Pathway Activity” (J Med Chem, 2019)
# Experiments:
# [1] = Thermodynamic solubility in phosphate buffer at pH 7.4 at 2 mg incubated under shaking condition for 6 hrs followed by rechecking and readjusting pH to 7.4 and further incubated for 18 hrs by HPLC/UV detection method; type: physicochemical; conditions: read-out: Therm_solubility
# [2] = target: T1, Poly [ADP-ribose] polymerase 1 (Homo sapiens, UniProt P09874); assay: (§1) Inhibition of recombinant human full-length Myc/His-tagged Parp-1 expressed in baculovirus infected Sf21 insect cells assessed as reduction in auto-PARsylation using activated DNA as substrate incubated for 150 mins in presence of NAD and bio-NAD as co-substrate by TR-FRET assay
# [3] = Intrinsic clearance in mouse liver microsomes assessed per mg protein in presence of NADPH by UPLC analysis; type: ADME, Microsome; conditions: read-out: CLH
# [4] = target: T2, Poly [ADP-ribose] polymerase tankyrase-2 (Homo sapiens, UniProt Q9H2K2); assay: biochemical
# T2 sequence (Q9H2K2 whole entry): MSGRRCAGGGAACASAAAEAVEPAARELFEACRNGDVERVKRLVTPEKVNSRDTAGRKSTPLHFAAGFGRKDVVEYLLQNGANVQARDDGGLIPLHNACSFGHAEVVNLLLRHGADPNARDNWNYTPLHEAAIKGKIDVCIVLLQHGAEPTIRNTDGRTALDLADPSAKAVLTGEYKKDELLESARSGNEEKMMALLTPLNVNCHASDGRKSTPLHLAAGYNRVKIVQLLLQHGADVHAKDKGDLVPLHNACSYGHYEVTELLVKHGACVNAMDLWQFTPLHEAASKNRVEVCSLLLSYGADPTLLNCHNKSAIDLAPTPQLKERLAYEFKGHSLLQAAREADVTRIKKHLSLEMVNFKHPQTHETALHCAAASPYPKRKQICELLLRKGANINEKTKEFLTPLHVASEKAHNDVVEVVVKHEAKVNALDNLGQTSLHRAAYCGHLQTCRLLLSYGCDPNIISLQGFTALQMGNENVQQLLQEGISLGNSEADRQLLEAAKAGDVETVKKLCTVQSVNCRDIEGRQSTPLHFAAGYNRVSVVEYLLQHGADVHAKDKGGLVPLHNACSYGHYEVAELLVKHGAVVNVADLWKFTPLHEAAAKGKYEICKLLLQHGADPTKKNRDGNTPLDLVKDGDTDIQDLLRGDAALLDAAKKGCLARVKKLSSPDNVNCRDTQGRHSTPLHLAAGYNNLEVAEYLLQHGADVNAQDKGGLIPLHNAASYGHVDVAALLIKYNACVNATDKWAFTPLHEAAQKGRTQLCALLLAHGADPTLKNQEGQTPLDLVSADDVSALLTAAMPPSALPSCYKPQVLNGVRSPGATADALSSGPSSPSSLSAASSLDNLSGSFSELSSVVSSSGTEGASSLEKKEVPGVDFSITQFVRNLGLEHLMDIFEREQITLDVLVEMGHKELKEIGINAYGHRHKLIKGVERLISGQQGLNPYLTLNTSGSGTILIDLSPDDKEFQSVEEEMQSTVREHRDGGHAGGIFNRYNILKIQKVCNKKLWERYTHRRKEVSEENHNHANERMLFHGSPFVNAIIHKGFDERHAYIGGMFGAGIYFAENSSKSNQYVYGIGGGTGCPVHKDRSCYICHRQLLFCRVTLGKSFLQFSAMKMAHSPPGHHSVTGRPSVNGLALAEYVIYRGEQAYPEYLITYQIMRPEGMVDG
# Description: Inhibition of GST tagged-TEV cleavage site-fused human recombinant TNKS2 (873 to 1166 residues) expressed in baculovirus infected sf9 cells assessed as reduction in auto-PARsylation incubated for 60 mins in presence of bio-NAD as co-substrate by ELISA
# Tankyrase 1/2 = target: T3, Tankyrase 1/2 (Homo sapiens, UniProt Q9H2K2+O95271)
# T3 sequence (Q9H2K2 whole entry): T2 sequence (Q9H2K2 whole entry)
# T3 sequence (O95271 whole entry): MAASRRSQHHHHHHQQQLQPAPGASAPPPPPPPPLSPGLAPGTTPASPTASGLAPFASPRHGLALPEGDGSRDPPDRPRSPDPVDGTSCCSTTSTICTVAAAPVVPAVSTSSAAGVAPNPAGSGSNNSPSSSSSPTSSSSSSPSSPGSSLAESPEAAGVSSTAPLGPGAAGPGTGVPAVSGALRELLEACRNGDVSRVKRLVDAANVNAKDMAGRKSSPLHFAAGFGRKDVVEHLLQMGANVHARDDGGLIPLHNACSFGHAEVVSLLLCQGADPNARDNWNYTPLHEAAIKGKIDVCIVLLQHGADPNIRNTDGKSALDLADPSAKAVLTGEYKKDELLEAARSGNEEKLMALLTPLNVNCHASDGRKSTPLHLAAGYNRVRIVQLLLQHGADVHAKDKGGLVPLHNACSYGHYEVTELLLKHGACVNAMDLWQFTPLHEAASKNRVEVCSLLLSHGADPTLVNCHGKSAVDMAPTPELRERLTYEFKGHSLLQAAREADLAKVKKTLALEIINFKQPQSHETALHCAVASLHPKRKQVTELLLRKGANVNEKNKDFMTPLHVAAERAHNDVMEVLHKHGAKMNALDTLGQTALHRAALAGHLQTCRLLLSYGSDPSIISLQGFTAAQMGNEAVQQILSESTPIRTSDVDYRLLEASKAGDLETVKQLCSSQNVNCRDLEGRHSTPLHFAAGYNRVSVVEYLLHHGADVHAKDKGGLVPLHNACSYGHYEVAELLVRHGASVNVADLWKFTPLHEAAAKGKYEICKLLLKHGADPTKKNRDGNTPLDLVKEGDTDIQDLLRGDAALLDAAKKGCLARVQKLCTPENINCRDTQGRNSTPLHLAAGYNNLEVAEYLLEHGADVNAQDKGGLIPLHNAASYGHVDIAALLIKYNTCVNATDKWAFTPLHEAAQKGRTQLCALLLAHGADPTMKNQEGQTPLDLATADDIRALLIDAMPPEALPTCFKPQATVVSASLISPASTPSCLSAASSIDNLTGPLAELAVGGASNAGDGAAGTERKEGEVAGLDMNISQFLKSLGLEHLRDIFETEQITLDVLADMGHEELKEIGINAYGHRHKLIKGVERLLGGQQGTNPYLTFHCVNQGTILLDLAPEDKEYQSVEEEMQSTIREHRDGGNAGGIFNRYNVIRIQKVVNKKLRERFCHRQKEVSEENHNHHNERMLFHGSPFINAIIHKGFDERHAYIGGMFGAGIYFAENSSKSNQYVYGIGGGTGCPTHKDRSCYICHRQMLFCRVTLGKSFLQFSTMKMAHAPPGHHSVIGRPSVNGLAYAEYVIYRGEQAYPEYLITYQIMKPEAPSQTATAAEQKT
# Description: Inhibition of tankyrase 1/2 in human DLD1 cells assessed as increase in axin2 accumulation incubated for 24 hrs by luminex based bead assay
# [5] = target: T4, Poly [ADP-ribose] polymerase tankyrase-1 (Homo sapiens, UniProt O95271); set-up: species or system Sf9
# T4 sequence (O95271 whole entry): T3 sequence (O95271 whole entry)
# [6] = Intrinsic clearance in human liver microsomes assessed per mg protein in presence of NADPH by UPLC analysis; type: ADME, Microsome; conditions: read-out: CLH
# [7] = target: T1, Poly [ADP-ribose] polymerase 1; assay: as §1, with “auto-PARsylation at 10 uM” for “auto-PARsylation”, “assay relative to control” for “assay”
# [8] = target: T2, Poly [ADP-ribose] polymerase tankyrase-2; assay: biochemical; remark: listed apart in the source
# Description: Inhibition of GST tagged-TEV cleavage site-fused human recombinant TNKS2 (873 to 1166 residues) expressed in baculovirus infected Sf9 cells assessed as reduction in auto-PARsylation incubated for 90 mins in presence of bio-NAD as co-substrate by TR-FRET assay
# [9] = target: T4, Poly [ADP-ribose] polymerase tankyrase-1; assay: biochemical
# Description: Inhibition of GST tagged-TEV cleavage site-fused human recombinant TNKS1 (1023 to 1327 residues) expressed in baculovirus infected Sf9 cells assessed as reduction in auto-PARsylation incubated for 90 mins in presence of bio-NAD as co-substrate by TR-FRET assay
# T1 sequence (P09874 whole entry): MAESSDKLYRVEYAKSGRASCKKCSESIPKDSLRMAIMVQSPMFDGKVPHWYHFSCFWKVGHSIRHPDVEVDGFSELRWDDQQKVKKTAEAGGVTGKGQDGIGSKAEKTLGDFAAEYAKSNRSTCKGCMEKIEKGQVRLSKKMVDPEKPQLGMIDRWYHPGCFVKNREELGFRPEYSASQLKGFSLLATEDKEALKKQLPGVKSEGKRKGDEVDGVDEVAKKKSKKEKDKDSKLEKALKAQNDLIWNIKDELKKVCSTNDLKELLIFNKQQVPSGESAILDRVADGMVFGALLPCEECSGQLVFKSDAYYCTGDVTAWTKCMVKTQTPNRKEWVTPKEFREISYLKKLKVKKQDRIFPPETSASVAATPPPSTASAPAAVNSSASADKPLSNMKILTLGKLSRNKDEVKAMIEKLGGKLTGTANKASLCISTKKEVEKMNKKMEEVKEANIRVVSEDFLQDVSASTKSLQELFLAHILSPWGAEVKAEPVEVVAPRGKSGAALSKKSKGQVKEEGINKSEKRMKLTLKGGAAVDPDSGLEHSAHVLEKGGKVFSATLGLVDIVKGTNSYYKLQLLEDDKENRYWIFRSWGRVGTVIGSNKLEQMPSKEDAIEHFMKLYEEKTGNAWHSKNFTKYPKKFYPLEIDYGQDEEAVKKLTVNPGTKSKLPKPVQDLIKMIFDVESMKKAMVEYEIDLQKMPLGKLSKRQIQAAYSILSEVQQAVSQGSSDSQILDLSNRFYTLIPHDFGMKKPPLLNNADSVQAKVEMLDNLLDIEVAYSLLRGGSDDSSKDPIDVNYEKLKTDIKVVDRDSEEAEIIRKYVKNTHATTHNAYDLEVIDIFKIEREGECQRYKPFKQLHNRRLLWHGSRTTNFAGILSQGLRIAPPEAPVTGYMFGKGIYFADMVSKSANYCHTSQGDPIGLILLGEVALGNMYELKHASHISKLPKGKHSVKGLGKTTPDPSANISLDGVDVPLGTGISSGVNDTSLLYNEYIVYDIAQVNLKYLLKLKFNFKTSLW
smiles,measurement,setting,value
CC(C)(O)c1ccc(-c2nc3ccccc3c(=O)[nH]2)cc1,solubility thermodynamic at 24 h,[1],38 µg/mL
same,IC50,[2],910 nM
same,microsomal CLint,[3],46 µL/min/mg
same,IC50,[4],13 nM
same,EC50,Tankyrase 1/2,1300 nM
same,IC50,[5],15 nM
same,microsomal CLint,[6],15 µL/min/mg
CC(C)(O)c1ccc(-c2nc3cccc(Cl)c3c(=O)[nH]2)cc1,IC50,[2],4300 nM
same,IC50,[5],35 nM
Cc1cc(F)cc2c(=O)[nH]c(-c3ccc(N4CCN(C)CC4)cc3)nc12,solubility thermodynamic at 24 h,[1],4 µg/mL
same,IC50,[2],120 nM
same,microsomal CLint,[3],138 µL/min/mg
same,IC50,[5],1.5 nM
same,microsomal CLint,[6],14 µL/min/mg
CC(C)(C)c1ccc(-c2nc3ccccc3c(=O)[nH]2)cc1,solubility thermodynamic at 24 h,[1],< 1 µg/mL
same,IC50,[2],> 10000 nM
same,microsomal CLint,[3],< 10 µL/min/mg
same,IC50,[4],8.7 nM
same,EC50,Tankyrase 1/2,1500 nM
same,IC50,[5],7.9 nM
same,microsomal CLint,[6],19 µL/min/mg
same,inhibition,[7],35%
CC(C)(O)c1ccc(-c2nc3c(F)ccc(F)c3c(=O)[nH]2)cc1,solubility thermodynamic at 24 h,[1],5 µg/mL
same,IC50,[2],1300 nM
same,microsomal CLint,[3],< 10 µL/min/mg
same,IC50,[5],26 nM
same,microsomal CLint,[6],< 10 µL/min/mg
CC(C)(O)c1ccc(-c2nc3ccc(F)cc3c(=O)[nH]2)cc1,solubility thermodynamic at 24 h,[1],29 µg/mL
same,IC50,[2],349 nM
same,microsomal CLint,[3],25 µL/min/mg
same,IC50,[5],12.5 nM
same,microsomal CLint,[6],< 10 µL/min/mg
CC(C)(O)c1ccc(-c2nc3ccc(F)c(F)c3c(=O)[nH]2)cc1,solubility thermodynamic at 24 h,[1],25 µg/mL
same,IC50,[2],512 nM
same,microsomal CLint,[3],23 µL/min/mg
same,IC50,[5],7 nM
same,microsomal CLint,[6],< 10 µL/min/mg
COc1ccc(-c2nc3ccccc3c(=O)[nH]2)cc1,solubility thermodynamic at 24 h,[1],4 µg/mL
same,microsomal CLint,[3],630 µL/min/mg
same,microsomal CLint,[6],217 µL/min/mg
COc1cccc2c(=O)[nH]c(-c3ccc(C(C)(C)O)cc3)nc12,solubility thermodynamic at 24 h,[1],153 µg/mL
same,IC50,[2],630 nM
same,microsomal CLint,[3],45 µL/min/mg
same,IC50,[5],35 nM
same,microsomal CLint,[6],12 µL/min/mg
COCCOC(C)(C)c1ccc(-c2nc3ccc(F)cc3c(=O)[nH]2)cc1,solubility thermodynamic at 24 h,[1],6 µg/mL
same,IC50,[2],5700 nM
same,microsomal CLint,[3],126 µL/min/mg
same,IC50,[5],24 nM
same,microsomal CLint,[6],41 µL/min/mg
O=c1[nH]c(-c2ccc3c(c2)OCO3)nc2ccccc12,solubility thermodynamic at 24 h,[1],1 µg/mL
same,IC50,[2],1700 nM
same,microsomal CLint,[3],346 µL/min/mg
same,IC50,[8],620 nM
same,EC50,Tankyrase 1/2,> 30000 nM
same,microsomal CLint,[6],83 µL/min/mg
same,IC50,[9],430 nM
Cl.O=c1[nH]c(-c2ccc(C3CCNCC3)cc2)nc2c(F)cc(F)cc12,solubility thermodynamic at 24 h,[1],57 µg/mL
same,microsomal CLint,[3],< 10 µL/min/mg
same,IC50,[5],15 nM
same,microsomal CLint,[6],< 10 µL/min/mg
CC(C)(O)c1ccc(-c2nc3ccc(F)cc3c(=O)[nH]2)nc1,IC50,[2],2500 nM
same,microsomal CLint,[3],< 10 µL/min/mg
same,IC50,[5],1000 nM
same,microsomal CLint,[6],15 µL/min/mg
Cc1cc(F)cc2c(=O)[nH]c(-c3ccc(C4CCN(C)CC4)cc3)nc12,solubility thermodynamic at 24 h,[1],5 µg/mL
same,IC50,[2],620 nM
same,microsomal CLint,[3],422 µL/min/mg
same,IC50,[4],2.2 nM
same,EC50,Tankyrase 1/2,50 nM
same,IC50,[5],2.2 nM
same,microsomal CLint,[6],< 10 µL/min/mg
CC(C)(O)c1ccc(-c2nc3c(F)cccc3c(=O)[nH]2)cc1,solubility thermodynamic at 24 h,[1],15 µg/mL
same,IC50,[2],1100 nM
same,microsomal CLint,[3],26 µL/min/mg
same,IC50,[5],14 nM
same,microsomal CLint,[6],< 10 µL/min/mg
CC(C)(C)c1ccc(-c2nc3ccc(F)cc3c(=O)[nH]2)cc1,solubility thermodynamic at 24 h,[1],< 1 µg/mL
same,IC50,[2],3900 nM
same,microsomal CLint,[3],> 1000 µL/min/mg
same,IC50,[5],3.3 nM
same,microsomal CLint,[6],70 µL/min/mg
CC(C)(O)c1ccc(-c2nc3cccc(F)c3c(=O)[nH]2)cc1,solubility thermodynamic at 24 h,[1],20 µg/mL
same,IC50,[2],830 nM
same,microsomal CLint,[3],11 µL/min/mg
same,IC50,[5],17 nM
same,microsomal CLint,[6],< 10 µL/min/mg
CC(C)(OCCO)c1ccc(-c2nc3ccc(F)cc3c(=O)[nH]2)cc1,solubility thermodynamic at 24 h,[1],23 µg/mL
same,IC50,[2],2300 nM
same,microsomal CLint,[3],32 µL/min/mg
same,IC50,[5],10 nM
same,microsomal CLint,[6],< 10 µL/min/mg
CC(C)(O)c1ccc(-c2nc3c(Cl)cccc3c(=O)[nH]2)cc1,IC50,[2],410 nM
same,microsomal CLint,[3],49 µL/min/mg
same,IC50,[5],11 nM
same,microsomal CLint,[6],23 µL/min/mg
CC(C)(O)c1ccc(-c2nc3ccc(Cl)cc3c(=O)[nH]2)cc1,IC50,[2],1400 nM
same,IC50,[5],23 nM
CN1CCC(c2ccc(-c3nc4c(F)cc(F)cc4c(=O)[nH]3)cc2)CC1.O=C(O)C(F)(F)F,solubility thermodynamic at 24 h,[1],65 µg/mL
same,IC50,[2],3700 nM
same,microsomal CLint,[3],39 µL/min/mg
same,IC50,[4],31 nM
same,EC50,Tankyrase 1/2,3900 nM
same,IC50,[5],31 nM
same,microsomal CLint,[6],< 10 µL/min/mg
CN1CCN(c2ccc(-c3nc4ccc(F)cc4c(=O)[nH]3)cc2)CC1,solubility thermodynamic at 24 h,[1],6 µg/mL
same,IC50,[2],370 nM
same,microsomal CLint,[3],44 µL/min/mg
same,IC50,[5],12 nM
same,microsomal CLint,[6],< 10 µL/min/mg
Cc1cc(F)cc2c(=O)[nH]c(-c3ccc(C(C)(C)O)cc3)nc12,solubility thermodynamic at 24 h,[1],1 µg/mL
same,IC50,[2],60 nM
same,microsomal CLint,[3],180 µL/min/mg
same,IC50,[5],0.8 nM
same,microsomal CLint,[6],< 10 µL/min/mg
Cc1cc(F)cc2c(=O)[nH]c(-c3ccc(C(C)(C)OCCO)cc3)nc12,IC50,[2],790 nM
same,microsomal CLint,[3],180 µL/min/mg
same,IC50,[5],1.6 nM
same,microsomal CLint,[6],37 µL/min/mg
Cc1cccc2c(=O)[nH]c(-c3ccc(C(C)(C)O)cc3)nc12,solubility thermodynamic at 24 h,[1],4 µg/mL
same,IC50,[2],79 nM
same,microsomal CLint,[3],81 µL/min/mg
same,IC50,[5],1.2 nM
same,microsomal CLint,[6],< 10 µL/min/mg
